According to publication PMC10427684, “Diversity-oriented synthesis encoded by deoxyoligonucleotides” (Nature Communications, 2023):

target: T1, Carbonic anhydrase II (CAII), BioVision kit #K473-100 (Homo sapiens, UniProt P00918); assay: biochemical; design: CAII esterase activity inhibition kit, absorbance at 405 nm, dose-response; settings: not given
T1 construct: gene CA2; kit enzyme
Method: Carbonic anhydrase II (CAII) inhibition assays were performed using a commercially available kit (BioVision, #K473-100), following the manufacturer’s protocol. For each assayed DOSEDO compound, 11 concentrations (half-log dilutions from 10 µM to 100 pM) were tested, with three technical replicates performed on each of two separate 384-well µClear® medium-binding, flat-bottom polystyrene microplates (Greiner Bio-One, #82051-294) (n = 6 for each compound concentration); for 53 only, six technical replicates (n = 6) were performed on the same plate for each compound concentration. Each reaction well contained 3 µL of compound (prepared in 10% DMSO, 90% kit buffer), 25.5 µL of enzyme/buffer mix (1.4 µL enzyme, 24.1 µL kit buffer), and 1.5 µL of substrate, for a total volume of 30 µL. Absorbance at 405 nm was read on a Molecular Devices SpectraMax i3x. In addition to the experimental conditions, a DMSO control and a no-enzyme control were each performed with three technical replicates on each plate, except for the experiment with 53, where six technical replicates for each control were performed on the same plate. The average change in absorbance for the no-enzyme control was subtracted from the change in absorbance over the same time interval for each experimental condition and the DMSO control on the same plate. For each concentration of each compound, relative activity was calculated separately for each replicate based on the average change in absorbance for the DMSO control on the same plate. Dose-response curves were fitted and IC50 values and 95% confidence intervals were calculated using GraphPad Prism v9.2.0. Curves were fitted using GraphPad Prism’s log(inhibitor) vs. response-variable slope nonlinear regression equation, with the top asymptote constrained to 100. Outliers were detected and removed via GraphPad Prism’s ROUT method, with a Q-value of 1%. Error bars (only shown if greater than the height of the symbol) represent 95% confidence intervals (Supplementary Fig. 22).

Row | Structure (SMILES) | IC50
1 | CNC(=O)[C@H]1C[C@@H](Oc2cccc(C3=CCNCC3)c2)CN1S(=O)(=O)c1ccc(S(N)(=O)=O)cc1 [compound 45, (2R,4R)-N-Methyl-1-((4-sulfamoylphenyl)sulfonyl)-4-(3-(1,2,3,6-tetrahydropyridin-4-yl)phenoxy)pyrrolidine-2-carboxamide] | 0.026 µM
2 | CC(=O)N1CC2(CN(Cc3ccc(S(N)(=O)=O)o3)C[C@@H]2c2ccc(-c3ccc(F)c(CN(C)C)c3)cc2)C1 [compound 46, (R)-5-((2-Acetyl-8-(3'-((dimethylamino)methyl)-4'-fluoro-[1,1'-biphenyl]-4-yl)-2,6-diazaspiro[3.4]octan-6-yl)methyl)furan-2-sulfonamide] | 0.279 µM
3 | CNC(=O)[C@H]1C[C@H](Oc2cccc(-c3ccc(S(N)(=O)=O)cc3)c2)CN1Cc1cn2c(n1)CCC2 [compound 52, (2R,4S)-1-((6,7-Dihydro-5H-pyrrolo[1,2-a]imidazol-2-yl)methyl)-N-methyl-4-((4'-sulfamoyl-[1,1'-biphenyl]-3-yl)oxy)pyrrolidine-2-carboxamide] | 0.064 µM
4 | CC(=O)N1C[C@H](c2ccc(-c3cccc(S(N)(=O)=O)c3)cc2)C2(C1)CN(C(=O)c1nc(C)n3c1CCCC3)C2 [compound 53, (R)-4'-(6-Acetyl-2-(3-methyl-5,6,7,8-tetrahydroimidazo[1,5-a]pyridine-1-carbonyl)-2,6-diazaspiro[3.4]octan-8-yl)-[1,1'-biphenyl]-3-sulfonamide] | > 10 µM
5 | CC(=O)N1C[C@@H](c2ccc(-c3ccc(S(N)(=O)=O)cc3)cc2)C2(C1)CN(C(=O)C(C)Oc1cccc(C#N)c1)C2 (stereo partly drawn) [compound 54, 4'-((8S)-6-Acetyl-2-(2-(3-cyanophenoxy)propanoyl)-2,6-diazaspiro[3.4]octan-8-yl)-[1,1'-biphenyl]-4-sulfonamide] | 0.034 µM
6 | C[C@H]1CN([C@@H](C)CO)S(=O)(=O)c2ccc(-c3ccc(S(N)(=O)=O)cc3)cc2O[C@H]1CN(C)C(=O)c1cnoc1-c1ccco1 [compound 57, 5-(Furan-2-yl)-N-(((4S,5R)-2-((S)-1-hydroxypropan-2-yl)-4-methyl-1,1-dioxido-8-(4-sulfamoylphenyl)-2,3,4,5-tetrahydrobenzo[b][1,4,5]oxathiazocin-5-yl)methyl)-N-methylisoxazole-4-carboxamide] | 0.031 µM
7 | C[C@H](CO)N1C[C@H](C)[C@@H](CN(C)C(=O)c2coc(S(C)(=O)=O)c2)Oc2cc(-c3ccc(S(N)(=O)=O)cc3)ccc2S1(=O)=O [compound 58, N-(((4S,5S)-2-((R)-1-Hydroxypropan-2-yl)-4-methyl-1,1-dioxido-8-(4-sulfamoylphenyl)-2,3,4,5-tetrahydrobenzo[b][1,4,5]oxathiazocin-5-yl)methyl)-N-methyl-5-(methylsulfonyl)furan-3-carboxamide] | 0.017 µM
8 | C[C@@H]1CN([C@@H](C)CO)S(=O)(=O)c2ccc(-c3ccc(S(N)(=O)=O)cc3)cc2O[C@H]1CN(C)C(=O)c1cnoc1-c1ccco1 [compound 59, 5-(Furan-2-yl)-N-(((4R,5R)-2-((S)-1-hydroxypropan-2-yl)-4-methyl-1,1-dioxido-8-(4-sulfamoylphenyl)-2,3,4,5-tetrahydrobenzo[b][1,4,5]oxathiazocin-5-yl)methyl)-N-methylisoxazole-4-carboxamide] | 0.016 µM

target: T2, glutathione S-transferase (GST), His-tagged (Schistosoma japonicum, UniProt P08515); assay: DSF with isolated His-tagged GST (dose-dependent thermal shift), confirmed by SPR; assay type: binding; settings: read-out: delta_Tm
T2 construct: His-tagged GST (Abcam ab89494); also the GST portion of N-His-GST-tagged USP7 (Lys208-Glu560)
T2 sequence (P08515 2-218): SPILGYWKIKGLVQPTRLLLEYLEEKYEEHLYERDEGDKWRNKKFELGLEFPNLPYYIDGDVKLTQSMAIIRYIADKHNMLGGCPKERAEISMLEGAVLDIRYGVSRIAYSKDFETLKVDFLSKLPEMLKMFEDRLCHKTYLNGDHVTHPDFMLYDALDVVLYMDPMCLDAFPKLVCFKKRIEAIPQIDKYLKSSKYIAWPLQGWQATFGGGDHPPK

Row | Structure (SMILES) | ΔTm at 100 µM
9 | C=CCNc1ncc(C(=O)N2CC[C@H](c3cccc(-c4cc(F)cc(OCC(=O)O)c4)c3)[C@@H]2C(=O)NC)s1 [compound 3, 3] | 3.3 °C
